Measurements taken from patent US20260022143A1, “Cyclic Peptide Inhibitors of IL-23” (JANSSEN PHARMACEUTICA NV, priority 2022, published 2026).
Starred links: 1 amine or outer side, 2 acyl side, 3 side chain; linkers in the order of their positions; H or OH if unused. Positions of bridges follow the written chain, without caps; N, C: chain ends. Non-standard residues stand in square brackets, D forms with d. Residues, ends and D or L forms follow the SMILES beside them. *: point of attachment. Trp(7-(3-AcNH-Ph)) = CC(=O)Nc1cccc(-c2cccc3c(C[C@H](N)C(=O)O)c[nH]c23)c1; X36 = C[N+]1(CCCc2cn(-c3ccc(C[C@H](N[*:1])C(=O)[*:2])cc3)nn2)CCOCC1; X16 = C[N+](C)(C)Cc1cn(-c2ccc(C[C@H](N[*:1])C(=O)[*:2])cc2)nn1; Me3N+(CH2)2O(CH2)2O(CH2)2CO = C[N+](C)(C)CCOCCOCCC(=O)*; Trp(7-Me) = Cc1cccc2c(C[C@H](N)C(=O)O)c[nH]c12; dLys(Me3) = C[N+](C)(C)CCCC[C@@H](N)C(=O)O; 2Nal = N[C@@H](Cc1ccc2ccccc2c1)C(=O)O; AEF = NCCOc1ccc(C[C@H](N)C(=O)O)cc1; X22 = CN1CC[N+](C)(CCOCCOCC*)CC1; 3Pal = N[C@@H](Cc1cccnc1)C(=O)O; Pen = CC(C)(S)[C@H](N)C(=O)O; Thp = NC1(C(=O)O)CCOCC1; X17 = C[N+]1(CC*)CCOCC1; X3 = C[N+](C)(C)CCCCC*; Sar = CNCC(=O)O

Columns and labels:
IL-23R = target: T1, IL-23R (Homo sapiens, UniProt Q5VWK5); assay: IL23R Reporter Assay; assay type: cell-based; settings: HEK293 cells containing IL-23R, IL-12RP1 and STAT-inducible firefly luciferase reporter; 10 ng/mL IL-23 (EC90); 5 h at 37° C.; read-out: IL23R Reporter Assay
T1 construct: host or cells: HEK293
T1 sequence (Q5VWK5 24-629): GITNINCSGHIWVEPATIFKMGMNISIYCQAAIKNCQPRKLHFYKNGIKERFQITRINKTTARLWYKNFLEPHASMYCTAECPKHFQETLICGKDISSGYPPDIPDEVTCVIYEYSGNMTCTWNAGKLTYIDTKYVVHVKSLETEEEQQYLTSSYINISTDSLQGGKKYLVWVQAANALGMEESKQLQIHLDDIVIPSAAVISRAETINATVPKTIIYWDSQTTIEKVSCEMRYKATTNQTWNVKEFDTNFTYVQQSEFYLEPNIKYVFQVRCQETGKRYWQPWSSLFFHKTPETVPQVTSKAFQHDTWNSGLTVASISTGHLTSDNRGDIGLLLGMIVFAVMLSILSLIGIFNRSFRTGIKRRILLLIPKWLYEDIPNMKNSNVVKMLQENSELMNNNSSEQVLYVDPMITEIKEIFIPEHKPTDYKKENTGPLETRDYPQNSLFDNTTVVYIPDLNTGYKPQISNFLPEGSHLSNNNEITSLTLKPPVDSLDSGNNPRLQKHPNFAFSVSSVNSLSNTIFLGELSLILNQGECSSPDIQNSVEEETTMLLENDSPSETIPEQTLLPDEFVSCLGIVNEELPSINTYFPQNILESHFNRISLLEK

[1] = Exposed Polar Surface Area (EPSA); assay type: physicochemical; settings: SFC on Chirex 3014 column; sample 1 mM DMSO stock; read-out: EPSA
Outline: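 Retention-based polarity: supercritical CO2 with 20 mM ammonium formate in MeOH (5–60%, 20%/min), Chirex 3014 column, 35 °C. Calibrated against 8 standards to give EPSA (Å^2); each sample measured twice.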

Row | Compound | IC50 (IL-23R) | EPSA [1]
1 | CC(=O)NCCCC[C@@H]1NC(=O)[C@H](Cc2c[nH]c3c(C)cccc23)NC(=O)[C@H]([C@@H](C)O)NC(=O)[C@H](CC(N)=O)NC(=O)[C@@H](NC(=O)CCOCCOCC[N+](C)(C)C)C(C)(C)SSC(C)(C)[C@@H](C(=O)N[C@@H](Cc2ccc(OCCCCC[N+](C)(C)C)cc2)C(=O)N[C@@H](Cc2ccc3ccccc3c2)C(=O)NC2(C(=O)N[C@@H](CCCCNC(C)=O)C(=O)N[C@@H](CC(N)=O)C(=O)N[C@@H](Cc3cccnc3)C(=O)N(C)CC(N)=O)CCOCC2)NC1=O [compound 428, cPEG3aCO-Pen(3)-N-T-7MeW-K(Ac)-Pen(3)-TMAPF-2Nal-THP-K(Ac)-N-3Pya-Sar-CONH2] ({Me3N+(CH2)2O(CH2)2O(CH2)2CO}-[Pen]NT[Trp(7-Me)]K(Ac)[Pen]Y(X3)[2Nal][Thp]K(Ac)N[3Pal][Sar]-NH2; disulfide 1-6) | 3.5 nM | 161 A^2
2 | CC(=O)NCCCC[C@@H]1NC(=O)[C@H](Cc2c[nH]c3c(C)cccc23)NC(=O)[C@H]([C@@H](C)O)NC(=O)[C@H](CC(N)=O)NC(=O)[C@@H](NC(C)=O)C(C)(C)SSC(C)(C)[C@@H](C(=O)N[C@@H](Cc2ccc(OCCCCC[N+](C)(C)C)cc2)C(=O)N[C@@H](Cc2ccc3ccccc3c2)C(=O)NC2(C(=O)N[C@@H](CCC(=O)O)C(=O)N[C@@H](CC(N)=O)C(=O)N[C@@H](Cc3cccnc3)C(=O)N(C)CC(N)=O)CCOCC2)NC1=O [compound 430, MeCO-Pen(3)-N-T-7MeW-K(Ac)-Pen(3)-TMAPF-2Nal-THP-E-N-3Pya-Sar-CONH2] (Ac-[Pen]NT[Trp(7-Me)]K(Ac)[Pen]Y(X3)[2Nal][Thp]EN[3Pal][Sar]-NH2; disulfide 1-6 (inferred)) | 2.6 nM | 167 A^2
3 | CC(=O)NCCCC[C@@H]1NC(=O)[C@H](Cc2c[nH]c3c(C)cccc23)NC(=O)[C@H]([C@@H](C)O)NC(=O)[C@H](CC(N)=O)NC(=O)[C@@H](NC(=O)CCOCCOCC[N+](C)(C)C)C(C)(C)SSC(C)(C)[C@@H](C(=O)N[C@@H](Cc2ccc(-n3cc(C[N+](C)(C)C)nn3)cc2)C(=O)N[C@@H](Cc2ccc3ccccc3c2)C(=O)NC2(C(=O)N[C@@H](CCCCNC(C)=O)C(=O)N[C@@H](CC(N)=O)C(=O)N[C@@H](Cc3cccnc3)C(=O)N(C)CC(N)=O)CCOCC2)NC1=O [compound 438, cPEG3aCO-Pen(3)-N-T-7MeW-K(Ac)-Pen(3)-F(4TzlTMA1)-2Nal-THP-K(Ac)-N-3Pya-Sar-CONH2] ({Me3N+(CH2)2O(CH2)2O(CH2)2CO}-[Pen]NT[Trp(7-Me)]K(Ac)[Pen][X16][2Nal][Thp]K(Ac)N[3Pal][Sar]-NH2; disulfide 1-6) | 3.4 nM | 167 A^2
4 | CC(=O)NCCCC[C@@H]1NC(=O)[C@H](Cc2c[nH]c3c(C)cccc23)NC(=O)[C@H]([C@@H](C)O)NC(=O)[C@H](CC(N)=O)NC(=O)[C@@H](NC(=O)[C@@H](CCCC[N+](C)(C)C)NC(C)=O)C(C)(C)SSC(C)(C)[C@@H](C(=O)N[C@@H](Cc2ccc(OCCN)cc2)C(=O)N[C@@H](Cc2ccc3ccccc3c2)C(=O)NC2(C(=O)N[C@@H](CCCCNC(C)=O)C(=O)N[C@@H](CC(N)=O)C(=O)N[C@@H](Cc3cccnc3)C(=O)N(C)CC(N)=O)CCOCC2)NC1=O [compound 447] (Ac-[dLys(Me3)][Pen]NT[Trp(7-Me)]K(Ac)[Pen][AEF][2Nal][Thp]K(Ac)N[3Pal][Sar]-NH2; disulfide 2-7 (inferred)) | 2 nM | 171 A^2

Next, values leading:

Row | IC50 (IL-23R) | EPSA [1] | Compound
5 | 3.1 nM | 156 A^2 | CC(=O)NCCCC[C@@H]1NC(=O)[C@H](Cc2c[nH]c3c(C)cccc23)NC(=O)[C@H]([C@@H](C)O)NC(=O)[C@H](CC(N)=O)NC(=O)[C@@H](NC(C)=O)C(C)(C)SSC(C)(C)[C@@H](C(=O)N[C@@H](Cc2ccc(OCCOCCOCC[N+]3(C)CCN(C)CC3)cc2)C(=O)N[C@@H](Cc2ccc3ccccc3c2)C(=O)NC2(C(=O)N[C@@H](CCCCNC(C)=O)C(=O)N[C@@H](CC(N)=O)C(=O)N[C@@H](Cc3cccnc3)C(=O)N(C)CC(N)=O)CCOCC2)NC1=O [compound 434] (Ac-[Pen]NT[Trp(7-Me)]K(Ac)[Pen]Y(X22)[2Nal][Thp]K(Ac)N[3Pal][Sar]-NH2; disulfide 1-6 (inferred))
6 | 1.2 nM | 186 A^2 | CC(=O)NCCCC[C@@H]1NC(=O)[C@H](Cc2c[nH]c3c(C)cccc23)NC(=O)[C@H]([C@@H](C)O)NC(=O)[C@H](CC(N)=O)NC(=O)[C@@H](NC(=O)[C@@H](CCCNC(=N)N)NC(C)=O)C(C)(C)SSC(C)(C)[C@@H](C(=O)N[C@@H](Cc2ccc(OCC[N+]3(C)CCOCC3)cc2)C(=O)N[C@@H](Cc2ccc3ccccc3c2)C(=O)NC2(C(=O)N[C@@H](CCC(=O)O)C(=O)N[C@@H](CC(N)=O)C(=O)N[C@@H](Cc3cccnc3)C(=O)N(C)CC(N)=O)CCOCC2)NC1=O [compound 437] (Ac-[dR][Pen]NT[Trp(7-Me)]K(Ac)[Pen]Y(X17)[2Nal][Thp]EN[3Pal][Sar]-NH2; disulfide 2-7 (inferred))
7 | 2 nM | 163 A^2 | CC(=O)NCCCC[C@@H]1NC(=O)[C@H](Cc2c[nH]c3c(C)cccc23)NC(=O)[C@H]([C@@H](C)O)NC(=O)[C@H](CC(N)=O)NC(=O)[C@@H](NC(C)=O)C(C)(C)SSC(C)(C)[C@@H](C(=O)N[C@@H](Cc2ccc(-n3cc(CCC[N+]4(C)CCOCC4)nn3)cc2)C(=O)N[C@@H](Cc2ccc3ccccc3c2)C(=O)NC2(C(=O)N[C@@H](CCCCNC(C)=O)C(=O)N[C@@H](CC(N)=O)C(=O)N[C@@H](Cc3cccnc3)C(=O)N(C)CC(N)=O)CCOCC2)NC1=O [compound 440] (Ac-[Pen]NT[Trp(7-Me)]K(Ac)[Pen][X36][2Nal][Thp]K(Ac)N[3Pal][Sar]-NH2; disulfide 1-6 (inferred))
8 | 2.1 nM | 191 A^2 | CC(=O)NCCCC[C@@H]1NC(=O)[C@H](Cc2c[nH]c3c(-c4cccc(NC(C)=O)c4)cccc23)NC(=O)[C@H]([C@@H](C)O)NC(=O)[C@H](CC(N)=O)NC(=O)[C@@H](NC(=O)CCOCCOCC[N+](C)(C)C)C(C)(C)SSC(C)(C)[C@@H](C(=O)N[C@@H](Cc2ccc(OCCN)cc2)C(=O)N[C@@H](Cc2ccc3ccccc3c2)C(=O)NC2(C(=O)N[C@@H](CCC(=O)O)C(=O)N[C@@H](CC(N)=O)C(=O)N[C@@H](Cc3cccnc3)C(=O)N(C)CC(N)=O)CCOCC2)NC1=O [compound 443, cPEG3aCO-Pen(3)-N-T-7(3NAcPh)W-K(Ac)-Pen(3)-AEF-2Nal-THP-E-N-3Pya-Sar-CONH2] ({Me3N+(CH2)2O(CH2)2O(CH2)2CO}-[Pen]NT[Trp(7-(3-AcNH-Ph))]K(Ac)[Pen][AEF][2Nal][Thp]EN[3Pal][Sar]-NH2; disulfide 1-6)
9 | 2 nM | 176 A^2 | CC(=O)NCCCC[C@@H]1NC(=O)[C@H](Cc2c[nH]c3c(-c4cccc(NC(C)=O)c4)cccc23)NC(=O)[C@H]([C@@H](C)O)NC(=O)[C@H](CC(N)=O)NC(=O)[C@@H](NC(=O)[C@@H](CCCC[N+](C)(C)C)NC(C)=O)C(C)(C)SSC(C)(C)[C@@H](C(=O)N[C@@H](Cc2ccc(OCCCCC[N+](C)(C)C)cc2)C(=O)N[C@@H](Cc2ccc3ccccc3c2)C(=O)NC2(C(=O)N[C@@H](CCC(=O)O)C(=O)N[C@@H](CC(N)=O)C(=O)N[C@@H](Cc3cccnc3)C(=O)N(C)CC(N)=O)CCOCC2)NC1=O [compound 448, MeCO-k(Me)3-Pen(3)-N-T-7(3NAcPh)W-K(Ac)-Pen(3)-TMAPF-2Nal-THP-E-N-3Pya-Sar-CONH2] (Ac-[dLys(Me3)][Pen]NT[Trp(7-(3-AcNH-Ph))]K(Ac)[Pen]Y(X3)[2Nal][Thp]EN[3Pal][Sar]-NH2; disulfide 2-7)
